Assay results published in the supplement of paper PMC9663587.

Legend:
MCF10A (GM) = assay: GRmax, 72 h; higher = less effect;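 further: breast cell lines in 384-well plates, nine doses across a 10^4 range, Dye Drop imaging of viable cells vs DMSO and time-zero plates, GR 0 means no net growth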
PDX1206 = assay: GRmax, 72 h; higher = less effect;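 further: breast cell lines in 384-well plates, nine doses across a 10^4 range, Dye Drop imaging of viable cells vs DMSO and time-zero plates, GR 0 means no net growth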
HCC1419 = assay: area over the GR curve, 72 h; higher = more effect;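 further: Dye Drop or Deep Dye Drop imaging of viable cells in 384-well plates (Hoechst nuclei, LIVE/DEAD dye), nine half-log doses, GR normalized to DMSO controls and time-zero plates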
HCC70 = assay: area over the GR curve, 72 h; higher = more effect;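 further: Dye Drop or Deep Dye Drop imaging of viable cells in 384-well plates (Hoechst nuclei, LIVE/DEAD dye), nine half-log doses, GR normalized to DMSO controls and time-zero plates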
MDAMB361 = assay: area over the GR curve, 72 h; higher = more effect;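 further: Dye Drop or Deep Dye Drop imaging of viable cells in 384-well plates (Hoechst nuclei, LIVE/DEAD dye), nine half-log doses, GR normalized to DMSO controls and time-zero plates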
SUM185PE = assay: area over the GR curve, 72 h; higher = more effect;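 further: Dye Drop or Deep Dye Drop imaging of viable cells in 384-well plates (Hoechst nuclei, LIVE/DEAD dye), nine half-log doses, GR normalized to DMSO controls and time-zero plates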
SUM229PE = assay: area over the GR curve, 72 h; higher = more effect
UACC812 = assay: area over the GR curve, 72 h; higher = more effect
UACC893 = assay: area over the GR curve, 72 h; higher = more effect
HCC1428 = assay: GRmax, 72 h; higher = less effect;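 further: breast cell lines in 384-well plates, nine doses across a 10^4 range, Dye Drop imaging of viable cells vs DMSO and time-zero plates, GR 0 means no net growth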
HCC1500 = assay: GRmax, 72 h; higher = less effect;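 further: breast cell lines in 384-well plates, nine doses across a 10^4 range, Dye Drop imaging of viable cells vs DMSO and time-zero plates, GR 0 means no net growth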
MDAMB157 [1] = assay: GRmax, 72 h; higher = less effect
MDAMB157 [2] = assay: area over the GR curve, 72 h; higher = more effect

SMILES | GRmax, 72 h (MCF10A (GM)) [GR] | GRmax, 72 h (PDX1206) [GR] | area over the GR curve (HCC1419) [GR] | area over the GR curve (HCC70) [GR] | area over the GR curve (MDAMB361) [GR] | area over the GR curve (SUM185PE) [GR] | area over the GR curve (SUM229PE) [GR] | area over the GR curve (UACC812) [GR] | area over the GR curve (UACC893) [GR] | GRmax, 72 h (HCC1428) [GR] | GRmax, 72 h (HCC1500) [GR] | GRmax, 72 h (MDAMB157 [1]) [GR] | area over the GR curve (MDAMB157 [2]) [GR]
COc1ccc2c(c1)[C@]1(C[C@H]1c1ccc3c(/C=C/c4ccc(CN5C[C@@H](C)O[C@@H](C)C5)cc4)n[nH]c3c1)C(=O)N2 | 0.0912 | 0.0507 | 0.425 | 1.11 | 0.425 | 0.161 | 0.675 | 0.524 | 0.416 |  |  |  | 
COc1cccc(OCCCN)c1-c1cc(Nc2cnc(C#N)cn2)n[nH]1 | 0.322 | -0.497 | 0.413 | 1.64 | 0.828 | 0.167 | 0.342 | 0.0047 | 0.171 |  |  |  | 
CCCCOc1c(C(=O)c2c(F)cc(C)cc2F)c[nH]c2nncc1-2 (max 10 µM) | 0.106 | 0.123 | 0.301 | 0.914 | 0.56 | 0.103 | 0.662 | 0.886 | 0.519 |  |  |  | 
CNc1nc(-c2ccc3c(N)n[nH]c3c2)cc(N2C[C@@H](C(=O)NC3CCCCC3)CC[C@H]2C)n1 (max 10 µM) | 0.857 | 0.295 | 0.245 | 0.288 | 0.636 | 0.224 | 0.0671 | 0.367 | 0.137 |  |  |  | 
CO[C@@H](C)Cn1c(=O)n(C)c2cnc3ccc(-c4cncc(C(C)(C)O)c4)cc3c21 (max 10 µM) | 0.0552 | -0.404 | 0.979 | 0.8 | 1.47 | 0.679 | 0.409 | 1.03 | 0.992 |  |  |  | 
C=CCn1c(=O)c2cnc(Nc3ccc(N4CCN(C)CC4)cc3)nc2n1-c1cccc(C(C)(C)O)n1 [AZD1775] (max 10 µM) | 0.0319 | -0.308 | 0.238 | 1.15 | 0.897 | 0.212 | 0.756 | 0.34 | 0.488 |  |  |  | 
CNC(=O)c1cccc(-c2ccc3c(N4CCOC[C@@H]4C)nc(N4CCOC[C@@H]4C)nc3n2)c1 [AZD2014] (max 10 µM) | 0.211 | 0.14 | 0.942 | 0.778 | 1.2 | 0.606 | 0.484 | 1.13 | 0.845 |  |  |  | 
NC1(C(=O)N[C@@H](CCO)c2ccc(Cl)cc2)CCN(c2nc[nH]c3nccc2-3)CC1 [AZD5363] (max 10 µM) | 0.641 | 0.397 | 0.189 | 0.661 | 0.367 | 0.267 | 0.234 | 0.2 | 0.769 |  |  |  | 
C[C@@H]1COCCN1c1cc(C2([S@](C)(=N)=O)CC2)nc(-c2cc[nH]c3nccc2-3)n1 [AZD6738] (max 10 µM) | 0.226 | 0.141 | 0.0421 | 0.283 | 0.161 | 0.0637 | 0.0968 | -0.0578 | 0.0149 |  |  |  | 
CN(C)C/C=C/C(=O)Nc1ccc(O[C@@H]2CCC[C@@H](Nc3ncc(Cl)c(-c4c[nH]c5ccccc45)n3)C2)cc1 [BSJ-01-175] (max 10 µM) | -0.356 | -0.936 | 0.39 | 1.07 | 1.32 | 0.597 | 0.745 | 0.571 | 0.927 |  |  |  | 
CC(=O)c1c(C)c2cnc(Nc3ccc(N4CCN(CCOCCOCCOCCNC(=O)COc5cccc6c5C(=O)N(C5CCC(=O)NC5=O)C6=O)CC4)cn3)nc2n(C2CCCC2)c1=O (configuration not stated) [BSJ-03-123] (max 10 µM) | -0.17 | -0.138 | 0.415 | 0.181 | 0.439 | 0.156 | 0.286 | 0.367 | 0.34 |  |  |  | 
CC(C)Nc1cc(-c2c[nH]c(C(=O)N[C@H](CO)c3cccc(Cl)c3)c2)c(Cl)cn1 [BVD523] (max 10 µM) | 0.225 | 0.564 | 0.0554 | 0.296 | 0.193 | -0.0633 | 0.279 | 0.305 | 0.267 |  |  |  | 
CCC(=O)Nc1ccc(C(=O)Nc2ccc(Nc3ncc4c(n3)N(C)c3ccc(C)cc3C(=O)N4C)cc2)cc1 [FMF-03-145-1] | 0.0984 | 0.128 | 0.261 | 1.31 | 0.323 | 0.384 | 1.06 | 1.04 | 0.869 |  |  |  | 
COc1cc(N2CCN(C)CC2)ccc1Nc1ncc2c(n1)N(C)c1ccccc1C(=O)N2CC(F)(F)F [FMF-03-146-1] | 0.977 | 0.966 | 0.0393 | -0.0097 | 0.126 | 0.0495 | 0.0104 | 0.0144 | -0.0085 |  |  |  | 
CN1CC[C@H](c2c(O)cc(O)c3c(=O)cc(-c4ccccc4Cl)oc23)[C@H](O)C1 [Flavopiridol] (max 1 µM) | -0.307 | -0.566 | 0.225 | 0.415 | 0.397 | 0.308 | 0.3 | 0.419 | 0.321 |  |  |  | 
CN(C)C(=O)c1cc2cnc(Nc3ccc(N4CCNCC4)cn3)nc2n1C1CCCC1 [LEE011/Ribociclib] (max 10 µM) | 0.519 | 0.713 | 0.293 | -0.0535 | 0.784 | 0.101 | 0.221 | 0.642 | 0.53 |  |  |  | 
O=C1NC(=NCc2cccs2)SC1=Cc1ccc2ncccc2c1 [R0-3306] (max 10 µM) | -0.0351 | 0.0387 | -0.0238 | 0.0814 | 0.0965 | 0.0686 | 0.0926 | 0.142 | 0.0158 |  |  |  | 
CNCc1ccc(-c2[nH]c3cc(F)cc4c3c2CCNC4=O)cc1 [Rucaparib] (max 10 µM) | 0.882 | 0.586 | 0.0527 | -0.0415 | 0.336 | 0.108 | 0.047 | 0.0535 | 0.164 |  |  |  | 
CC1(N)CCN(c2cnc(-c3cccc(Cl)c3Cl)c(N)n2)CC1 [SHP099] (max 10 µM) | 0.738 | 0.7 | 0.0437 | 0.074 | 0.13 | 0.176 | -0.0033 | 0.151 | -0.0199 |  |  |  | 
CN(C)C/C=C/C(=O)Nc1ccc(C(=O)Nc2cccc(Nc3ncc(Cl)c(-c4c[nH]c5ccccc45)n3)c2)cc1 [THZ1] (max 1 µM) | -0.267 | -0.522 | 0.369 | 0.762 | 0.746 | 0.484 | 0.504 | 0.0711 | 0.542 |  |  |  | 
CN(C)C/C=C/C(=O)Nc1ccc(C(=O)N2CCC[C@@H](Nc3ncc(Cl)c(-c4c[nH]c5ccccc45)n3)C2)cc1 [THZ531] (max 1 µM) | -0.28 | -0.312 | 0.21 | 0.462 | 0.682 | 0.231 | 0.132 | 0.0619 | 0.437 |  |  |  | 
CN(C)C/C=C/C(=O)Nc1ccc(C(=O)Nc2cccc(Nc3cc(-c4c[nH]c5ccccc45)ncn3)c2)cc1 [THZ-P1-2] (max 10 µM) | -0.164 | 0.857 | 0.019 | 0.326 | 0.789 | 0.14 | 0.149 | 0.0711 | 0.573 |  |  |  | 
O=C(CCCCCCC(=O)Nc1ccccc1)NO [Vorinostat] (max 10 µM) |  |  | 0.148 | 0.38 | 0.457 | 0.0835 | 0.153 | 0.393 | 0.161 | -0.479 | -0.596 | -0.413 | 0.297
C=CC(=O)Nc1ccc(C(=O)Nc2[nH]nc3c2CN(C(=O)N[C@H](CN(C)C)c2ccccc2)C3(C)C)cc1 [YKL-5-124] (max 10 µM) | -0.141 | -0.513 | 1.01 | 1.46 | 1.14 | 0.518 | 0.744 | 1.02 | 0.765 |  |  |  | 
CN1CCN(C(=O)c2ccc3cc(CCNc4ncnc5ccc(C#N)cc45)ccc3c2)CC1 [senexin b] (max 10 µM) | 0.893 | 0.223 | 0.13 | 0.209 | 0.323 | 0.293 | 0.21 | 0.421 | 0.185 |  |  |  | 
